The values below come from US7625870B2, “Peptide substance restoring respiratory organs function” (“Access Bioscience” CJSC, priority 2004, dated 2009).

Series [1] concerns lung tissue explants of mature Wistar rats. The series is described as follows: Growth of lung organotypical culture explants. The class given is cell-based, rat. The note with it: for SI, % compared to the control: 3 days of incubation. Here is the method: Lung tissue explants of mature Wistar rats were cultivated in petri dishes with collagen bottom cover. The nutritious medium was composed of 35% Eagle's medium, 35% Hanx solution, 25% calf fetal serum and 5% of chicken embryonic extract with added glucose, insulin, gentamycin and glutamin. Ala-Glu-Asp-Leu (SEQ ID NO:1) tetrapeptide was added into the cultural medium in fixed concentrations, from 0,01 to 20,0 ng per ml of nutritious medium. The same amount of natural saline solution was added to the control explants. After 3 days of incubation at the temperature of 37° C. there was assessed an extension of explants' area using phase contrast microscope. Biological activity of the preparation was evaluated by the change of square index (SI) of the explants cultivated in the medium containing the peptide, compared to the control.

The test system of another series is white mongrel male mice. The series is described as follows: Acute toxicity, single intramuscular injection. Particulars: dose exceeding the therapeutic one 5000 times. The class given is in vivo, mouse. An excerpt: (§1) The general toxic effect of tetrapeptide was studied in compliance with “The manual of Experimental (Pre-Clinical) Study of New Pharmacological Substances” (2000): acute toxicity was studied in conditions of tetrapeptide single administration, subacute and chronic toxicity were investigated in conditions of long tetrapeptide administration.
Acute toxicity was investigated on 60 white mongrel male mice weighing 20-23 g. The animals were randomized to 6 equal groups. They were intramuscularly injected with the tetrapeptide once in the doses of 1 mg/kg, 2 mg/kg, 3 mg/kg, 4 mg/kg, 5 mg/kg in 0.25 ml of natural saline solution. The control animals received the same amount of natural saline solution (0.9%).

Another series relates to male guinea-pigs. The note with it: guinea pig, in vivo.
Source text: as §1
The tetrapeptide was investigated for chronic toxicity for 6 months, taking into consideration the recommended period of administration, on 100 male guinea-pigs weighing 300-350 g. The animals of the experimental groups were intramuscularly injected with the tetrapeptide in the doses 1 μg/kg, 0,1 mg/kg, 1 mg/kg in 0,5 ml of natural saline solution, once a day for 6 months. The animals of the control group were administered with natural saline solution in the same amount.
These animals were exposed to the assessment of the amount of erythrocytes, hemoglobin, reticulocytes, thrombocytes, leucocytes, leukocytic formula, speed of erythrocytes sedimentation (SES), erythrocytes resistance in peripheral blood. Together with this there was measured the total protein content in the blood serum according to the method of Lowry, potassium and sodium content were measured according to the method of plasma spectrophotometry. On completion of the experiment the animals were subjected to a pathomorphological examination to assess the state of brain and spinal marrow, cerebrospinal ganglia, thyroid gland, adrenal glands, testes, pituitary body, heart, lungs, aorta, liver, kidneys, urinary bladder, pancreas, stomach, small intestine, large intestine, thymus, spleen, lymph nodes, bone marrow.

Structures are written as SMILES. Marks after values point to notes of the source that are not given here. Peptide text beside a SMILES is read from it.

Regarding `CC(C)C[C@H](NC(=O)[C@H](CC(=O)O)NC(=O)[C@H](CCC(=O)O)NC(=O)[C@H](C)N)C(=O)O` [Tetrapeptide, L-alanyl-L-glutamyl-L-aspartyl-L-leucine] (H-AEDL-OH), the “SI, % compared to the control” value in series [1] (0.01 ng/ml) is 2%; in series [1] (0.1 ng/ml), 14%; in series [1] (0.5 ng/ml), 9%; in series [1] (1.0 ng/ml), 22* %; in series [1] (2.0 ng/ml), 53* %; in series [1] (10.0 ng/ml), 25* %. In addition, the “SI, % compared to the control” value in series [1] (20.0 ng/ml) stood at 9%. Besides, the “growth of organotypic lung culture explants” value in series [1] (in words, concentrations from 1,0 to 10,0 ng/ml) is listed as “reliably stimulates”. Also, the “acute toxicity, toxic reactions” value with white mongrel male mice is on record as “does not cause any toxic reactions”. The “chronic toxicity, side-effects” value in the series on male guinea-pigs is “does not reveal any side-effects”. Besides, in the series with male guinea-pigs, the “effect on SES, erythrocytes resistance and biochemical indices of blood serum” value is on record as “weren't revealed a reliable effect”. For the same molecule, the “number of leucocytes (blood morphological content)” value in the series with male guinea-pigs is reported as “increase”.
